Source: PubChem BioAssay AID743162 (Broad Institute, 2013)
Calls of active or inactive are those of the source. How the calls were made is not given here.

System: Mycobacterium tuberculosis replicating, CFU count, imaging
Assay: growth inhibition of replicating M. tuberculosis, dose response, CFU by imaging, dry powder, 7108-01 (AID 743162)
Conditions: stronger effect = lower value

Compound | CFU count (CFU at 10 uM, at 10 µM) | CFU count (at 64 µM)
CSc1nsc(SCc2ccc(C(=O)Nc3cccc(C)c3)cc2)n1 | -1.9e+09 | 1.31e+06
COC(=O)C(C)Oc1ccc2cc(-c3ccccc3)c(=O)oc2c1 (stereo not drawn) | 2.01e+09 | 1e+09 (inactive)
COc1ccc(CNC(=O)Nc2ncc([N+](=O)[O-])s2)cc1 | 1.24e+09 | 220000
CCOc1ccc(OC(=O)c2ccc3c(=O)n4c(nc3c2)CCC4)cc1 | 1.36e+09 | 1e+09 (inactive)
c1ccc(-c2n[nH]c(-c3ccccn3)n2)nc1 | 1.06e+09 | 1.3e+09 (inactive)
CCOC(=O)c1cc(COc2c(Cl)cccc2Cl)on1 | 1.85e+09 | 1.7e+09 (inactive)
Cn1c(NC(=O)c2ccccc2)nc2ccccc21 | 1.98e+09 | 0
COc1ccc(CCNc2cc(-c3ccccc3)nc3ncnn23)cc1 | 1.18e+09 | 4.3e+08 (inactive)
CCC(C)n1nnc2c(=O)oc3ccccc3c21 (stereo not drawn) | 8.38e+08 | 6.7e+08 (inactive)
